Marks after values point to notes of the source that are not given here.
System: SAMP8/Ta Slc mice
Experiment: Measurement of rotational motor activity in mouse (turning wheel; motor activity in light period)
Assay type: in vivo
Settings: for Motor Activity in light period, % of Pre: Pre value = 100%; for Motor Activity in light period, %: n = 9
Procedure: Animals: SAMP8/Ta Slc mice (16 weeks old), and SAMR1/Ta Slc mice (16 weeks old) as control mouse were used. After breeding in a rearing room, they were used after the age of 6-month-old to 8-month-old. A sole isolation breeding was conducted during the breeding. AB system of Neuroscience Co. was used for measurement. The mice were put in separate cages, and the turning wheel's rotation number for every minute by mouse was measured, and the data was analyzed as a motor activity for every hour. A turning wheel was equipped in the cage for measurement. The number in which the mouse rotated the turning wheel was automatically counted every minute with AB system (Neuroscience Co.), and recorded with time course as an amount of movement (motor activity). Using the total value of turning wheel's rotation number in habituation stage, each group was evenly grouped. Compound A was dissolved in water for injection, and water for injection was used as a vehicle. The solution and vehicle were administered as drinking water, respectively. The drinking water was replaced with new one every week. Pre: Habituation period (1 week) First week: Vehicle/Compound A 0.1-0.2 mg/kg/day Second week: Vehicle/Compound A 0.1-0.2 mg/kg/day Third week: Vehicle/Compound A 1-2 mg/kg/day Fourth week: Vehicle/Compound A 1-2 mg/kg/day Fifth week: Vehicle/Compound A 1-2 mg/kg/day The number of rotational movement which was automatically counted every minute by AB system (Neuroscience Co.) was tallied for every hour. Calculation was carried out according to the following sequences. (i) By calculating according to the following mathematical formula: (rotational motor activity in light period of a day)/(rotational motor activity in light period of a day+rotational motor activity in dark period of a day)×100, motor activity % in light period was determined. (ii) The mean value of motor activity % in light period was calculated for every week, and was made a representative value for every week. (iii) In addition, in case that the value of Pre was made 100%, rate of change of motor activity % in light period after administration was shown as % of Pre value. Statistical analysis was performed with t-test or Paired t-test for vehicle administration group and compound A administration group of SAMP8.

[1] = 1st week, Compound A 0.1-0.2 mg/kg/day in drinking water
[2] = 2nd week, Compound A 0.1-0.2 mg/kg/day in drinking water
[3] = 3rd week, Compound A 1-2 mg/kg/day in drinking water
[4] = 4th week, Compound A 1-2 mg/kg/day in drinking water
[5] = 5th week, Compound A 1-2 mg/kg/day in drinking water

## CCC(=O)NCC[C@@H]1CCc2ccc3c(c21)CCO3 [Compound A, (S)—N-[2-(1,6,7,8-tetrahydro-2H-indeno[5,4-b]furan-8-yl)ethyl]propionamide]
0.1-0.2 then 1-2 mg/kg/day in drinking water
  abnormal behavior in light period of SAMP8: inhibit dose-dependently
[1]
  Motor Activity in light period, % of Pre: 97.67 % of Pre
  Motor Activity in light period, %: 30.95%
[2]
  Motor Activity in light period, % of Pre: 79.60 % of Pre
  Motor Activity in light period, %: 24.58%
[3]
  Motor Activity in light period, % of Pre: 70.25** % of Pre
  Motor Activity in light period, %: 22.82* %
[4]
  Motor Activity in light period, % of Pre: 74.77* % of Pre
  Motor Activity in light period, %: 23.75* %
[5]
  Motor Activity in light period, % of Pre: 71.64* % of Pre
  Motor Activity in light period, %: 21.18** %
First and second week, 0.1-0.2 mg/kg/day in drinking water
  change of the motor activity % in light period and the % of Pre value compared to the vehicle administered group: there was not observed a change
Third to fifth week, 1-2 mg/kg/day in drinking water
  motor activity % in light period and the % of Pre value compared to the vehicle-administered group: decreased
